# Laboratory results as given in patent US10174029B2, “Pyrimidine-2,4-diamine derivatives for treatment of cancer” (THOMAS HELLEDAYS STIFTELSE FOR MEDICINSK FORSKNING, priority 2012, dated 2019).
# Target: MTH1 (Homo sapiens, UniProt P36639)
# Test: MTH1 enzymatic assay and IC50 value determination (malachite green)
# Format: biochemical
# Settings: MTH1 4.8 nM, dGTP 100 μM, 15 minutes at 22° C.
# Method: MTH1 Enzymatic Assay and IC50 Value Determination
# MTH1 catalyzes the hydrolysis of dGTP to dGMP and PPi. By coupling the reaction to pyrophosphatase added in excess PPi is converted to Pi that can be detected by using the malachite green assay reagent. Briefly, for IC50 value determination the compound to be analyzed is diluted in assay buffer in a 1:3 dilution series generating 12 different compound concentrations giving a final DMSO concentration of 1% in the assay well. MTH1 diluted in assay buffer (100 mM Tris-acetate, 40 mM NaCl, 10 mM magnesium acetate, 1 mM DTT and 0.005% Tween 20) fortified with E. coli pyrophosphatase (0.8 U/ml) is added to a final concentration of 4.8 nM. dGTP diluted in assay buffer is added to a final concentration of 100 μM. The reaction mixture is incubated with shaking for 15 minutes at 22° C. To 100 μl reaction mixture is 25 μl Malachite green assay regent (0.095% Malachite green in 17% H2SO4, 1.5% Ammonium molybdate, 0.17% Tween 20) added followed by incubation with shaking for 15 minutes at 22° C.
# The absorbance of the assay plate is read at 630 nm using an EnVision Multilabel plate reader. The IC50 value is determined by fitting a dose response curve to the data points using nonlinear regression analysis and the equation Y=Bottom+(Top−Bottom)/(1+10^((Log IC50−X)*HillSlope)), where Y is the read absorbance at 630 nm and X is log [compound].
SMILES,IC50 (group: less than 200 nM) [nM],IC50 (group: between 2 μM and 10 μM) [nM]
"CNc1cc(-c2ccccc2C(F)(F)F)nc(N)n1 [Example 89, 4-N-methyl-6-[2-(trifluoromethyl)phenyl]pyrimidine-2,4-diamine]",< 200,
"CNc1cc(-c2cccc3c2cnn3C)nc(N)n1 [Example 90, 4-N-methyl-6-(1-methyl-1H-indazol-4-yl)pyrimidine-2,4-diamine]",< 200,
"CNc1cc(-c2cccc(F)c2F)nc(N)n1 [Example 93, 6-(2,3-difluorophenyl)-4-N-methylpyrimidine-2,4-diamine]",< 200,
"CNc1cc(-c2cc(Cl)c3c(c2)OCO3)nc(N)n1 [Example 97, 6-(7-chloro-2H-1,3-benzodioxol-5-yl)-4-N-methylpyrimidine-2,4-diamine]",< 200,
"CNc1cc(-c2ccc(OC)c(Cl)c2Cl)nc(N)n1 [Example 98, 6-(2,3-dichloro-4-methoxyphenyl)-4-N-methylpyrimidine-2,4-diamine]",< 200,
"CNc1cc(-c2cccc(CO)c2)nc(N)n1 [Example 101, {3-[2-amino-6-(methylamino)pyrimidin-4-yl]phenyl}methanol]",< 200,
"CNc1cc(-c2ccc(C(=O)OC)cc2)nc(N)n1 [Example 103, methyl 4-[2-amino-6-(methylamino)pyrimidin-4-yl]benzoate]",< 200,
"CNc1cc(-c2ccc(O)c(Cl)c2Cl)nc(N)n1 [Example 105, 4-[2-amino-6-(methylamino)pyrimidin-4-yl]-2,3-dichlorophenol]",< 200,
"CNc1cc(-c2ccc(C=O)cc2)nc(N)n1 [Example 108, 4-[2-amino-6-(methylamino)pyrimidin-4-yl]benzaldehyde]",< 200,
"CNC(=O)c1ccc(-c2cc(NC)nc(N)n2)cc1 [Example 110, 4-[2-amino-6-(methylamino)pyrimidin-4-yl]-N-methylbenzamide]",< 200,
"C=Cc1ccc(-c2cc(NC)nc(N)n2)cc1 [Example 111, 6-(4-ethenylphenyl)-4-N-methylpyrimidine-2,4-diamine]",< 200,
"Cc1cccc(-c2cc(NCCN3CCCCC3)nc(N)n2)c1C [Example 112, 6-(2,3-dimethylphenyl)-4-N-[2-(piperidin-1-yl)ethyl]pyrimidine-2,4-diamine]",,2000 to 10000
"CNc1cc(-c2cccc(C(=O)Nc3ccc(C)cc3)c2)nc(N)n1 [Example 115, 3-[2-amino-6-(methylamino)pyrimidin-4-yl]-N-(4-methylphenyl)benzamide]",< 200,
"CNc1cc(-c2ccnc(OC)c2Cl)nc(N)n1 [Example 120, 6-(3-chloro-2-methoxypyridin-4-yl)-4-N-methylpyrimidine-2,4-diamine]",< 200,
"COc1ccccc1CCNc1cc(-c2cccc(C)c2C)nc(N)n1 [Example 126, 6-(2,3-dimethylphenyl)-4-N-[2-(2-methoxyphenyl)ethyl]pyrimidine-2,4-diamine]",< 200,
"Cc1ccc(CCNc2cc(-c3cccc(C)c3C)nc(N)n2)cc1 [Example 127, 6-(2,3-dimethylphenyl)-4-N-[2-(4-methylphenyl)ethyl]pyrimidine-2,4-diamine]",< 200,
"Cc1cccc(-c2cc(NCCc3ccccn3)nc(N)n2)c1C [Example 129, 6-(2,3-dimethylphenyl)-4-N-[2-(pyridin-2-yl)ethyl]pyrimidine-2,4-diamine]",< 200,
"Cc1cccc(-c2cc(NCCCc3ccccc3)nc(N)n2)c1C [Example 131, 6-(2,3-dimethylphenyl)-4-N-(3-phenylpropyl)pyrimidine-2,4-diamine]",< 200,
"Cc1cccc(-c2cc(NCCOc3ccccc3)nc(N)n2)c1C [Example 132, 6-(2,3-dimethylphenyl)-4-N-(2-phenoxyethyl)pyrimidine-2,4-diamine]",< 200,
"CCCCCNc1cc(-c2cccc(C)c2C)nc(N)n1 [Example 135, 6-(2,3-dimethylphenyl)-4-N-pentylpyrimidine-2,4-diamine]",< 200,
"CNc1cc(-c2ccc(O)nc2)nc(N)n1 [Example 141, 5-[2-amino-6-(methylamino)pyrimidin-4-yl]pyridin-2-ol]",< 200,
"CNc1cc(-c2ccc(CO)cc2)nc(N)n1 [Example 142, {4-[2-amino-6-(methylamino)pyrimidin-4-yl]phenyl}methanol]",< 200,

SMILES,IC50 (group: less than 200 nM) [nM],IC50 (group: between 2 μM and 10 μM) [nM]
"CNc1cc(-c2cn(S(=O)(=O)c3ccc(Cl)cc3)c3ccccc23)nc(N)n1 [Example 144, 6-[1-(4-chlorobenzenesulfonyl)-1H-indol-3-yl]-4-N-methylpyrimidine-2,4-diamine]",< 200,
"CNc1cc(-c2cc3cn[nH]c3cc2C)nc(N)n1 [Example 146, 4-N-methyl-6-(6-methyl-1H-indazol-5-yl)pyrimidine-2,4-diamine]",< 200,
"CNc1cc(-c2ccc3[nH]ccc3c2)nc(N)n1 [Example 148, 6-(1H-indol-5-yl)-4-N-methylpyrimidine-2,4-diamine]",< 200,
"CNc1cc(-c2ccncc2Cl)nc(N)n1 [Example 149, 6-(3-chloropyridin-4-yl)-4-N-methylpyrimidine-2,4-diamine]",< 200,
"Cc1cccc(-c2cc(NC3CCC3)nc(N)n2)c1C [Example 151, 4-N-cyclobutyl-6-(2,3-dimethylphenyl)pyrimidine-2,4-diamine]",< 200,
"CCNc1cc(-c2cn(S(=O)(=O)c3ccc(C)cc3)c3ccccc23)nc(N)n1 [Example 159, 4-N-ethyl-6-[1-(4-methylbenzenesulfonyl)-1H-indol-3-yl]pyrimidine-2,4-diamine]",< 200,
"Cc1ccc(S(=O)(=O)n2cc(-c3cc(NC(C)(C)C)nc(N)n3)c3ccccc32)cc1 [Example 161, 4-N-tert-butyl-6-[1-(4-methylbenzenesulfonyl)-1H-indol-3-yl]pyrimidine-2,4-diamine]",,2000 to 10000
"Cc1cccc(-c2cc(NCC3CC3)nc(N)n2)c1C [Example 164, 4-N-(cyclopropylmethyl)-6-(2,3-dimethylphenyl)pyrimidine-2,4-diamine]",< 200,
"Cc1ccc(S(=O)(=O)n2cc(-c3cc(NCC4CC4)nc(N)n3)c3ccccc32)cc1 [Example 165, 4-N-(cyclopropylmethyl)-6-[1-(4-methylbenzenesulfonyl)-1H-indol-3-yl]pyrimidine-2,4-diamine]",< 200,
"Cc1cccc(-c2cc(N[C@H](C)C3CC3)nc(N)n2)c1C [Example 166, 4-N-[(1R)-1-cyclopropylethyl]-6-(2,3-dimethylphenyl)pyrimidine-2,4-diamine]",,2000 to 10000
"Cc1ccc(S(=O)(=O)n2cc(-c3cc(N[C@H](C)C4CC4)nc(N)n3)c3ccccc32)cc1 [Example 167, 4-N-[(1R)-1-cyclopropylethyl]-6-[1-(4-methylbenzenesulfonyl)-1H-indol-3-yl]pyrimidine-2,4-diamine]",,2000 to 10000
"Cc1cccc(-c2cc(N[C@@H](C)C3CC3)nc(N)n2)c1C [Example 168, 4-N-[(1S)-1-cyclopropylethyl]-6-(2,3-dimethylphenyl)pyrimidine-2,4-diamine]",< 200,
"CNc1cc(-c2cc(C)ccc2Cl)nc(N)n1 [Example 171, 6-(2-chloro-5-methylphenyl)-4-N-methylpyrimidine-2,4-diamine]",< 200,
"CNc1cc(-c2ccc(C(C)(C)O)cc2)nc(N)n1 [Example 173, 2-{4-[2-amino-6-(methylamino)pyrimidin-4-yl]phenyl}propan-2-ol]",< 200,
"CNc1cc(-c2cccc3[nH]ccc23)nc(N)n1 [Example 174, 6-(1H-indol-4-yl)-4-N-methylpyrimidine-2,4-diamine]",< 200,
"Nc1nc(NC2CCCCC2)cc(-c2cccc(Cl)c2Cl)n1 [Example 175, 4-N-cyclohexyl-6-(2,3-dichlorophenyl)pyrimidine-2,4-diamine]",< 200,
"C[C@@H](Nc1cc(-c2cccc(Cl)c2Cl)nc(N)n1)C1CC1 [Example 179, 4-N-[(1R)-1-cyclopropylethyl]-6-(2,3-dichlorophenyl)pyrimidine-2,4-diamine]",,2000 to 10000
"CC(C)(C)CNc1cc(-c2cccc(Cl)c2Cl)nc(N)n1 [Example 180, 6-(2,3-dichlorophenyl)-4-N-(2,2-dimethylpropyl)pyrimidine-2,4-diamine]",,2000 to 10000
"Cc1cccc(-c2cc(NCC(C)(C)C)nc(N)n2)c1C [Example 181, 6-(2,3-dimethylphenyl)-4-N-(2,2-dimethylpropyl)pyrimidine-2,4-diamine]",,2000 to 10000
"Cc1ccc(S(=O)(=O)n2cc(-c3cc(NCC(C)(C)C)nc(N)n3)c3ccccc32)cc1 [Example 182, 4-N-(2,2-dimethylpropyl)-6-[1-(4-methylbenzenesulfonyl)-1H-indol-3-yl]pyrimidine-2,4-diamine]",,2000 to 10000
"CNc1cc(-c2cc(Cl)c(OC)cc2Cl)nc(N)n1 [Example 192, 6-(2,5-dichloro-4-methoxyphenyl)-4-N-methylpyrimidine-2,4-diamine]",< 200,
"CNc1cc(-c2cc(C(C)(C)C)ccc2OC)nc(N)n1 [Example 197, 6-(5-tert-butyl-2-methoxyphenyl)-4-N-methylpyrimidine-2,4-diamine]",< 200,
